Data on 12 compounds can be found in BindingDB's records for doi:10.7270/Q25B013C (The Scripps Research Institute Molecular Screening Center, 2014).

The assay has as its target T1, Disintegrin and metalloproteinase domain-containing protein 10 (Homo sapiens, UniProt O14672).
T1 sequence (O14672 whole entry): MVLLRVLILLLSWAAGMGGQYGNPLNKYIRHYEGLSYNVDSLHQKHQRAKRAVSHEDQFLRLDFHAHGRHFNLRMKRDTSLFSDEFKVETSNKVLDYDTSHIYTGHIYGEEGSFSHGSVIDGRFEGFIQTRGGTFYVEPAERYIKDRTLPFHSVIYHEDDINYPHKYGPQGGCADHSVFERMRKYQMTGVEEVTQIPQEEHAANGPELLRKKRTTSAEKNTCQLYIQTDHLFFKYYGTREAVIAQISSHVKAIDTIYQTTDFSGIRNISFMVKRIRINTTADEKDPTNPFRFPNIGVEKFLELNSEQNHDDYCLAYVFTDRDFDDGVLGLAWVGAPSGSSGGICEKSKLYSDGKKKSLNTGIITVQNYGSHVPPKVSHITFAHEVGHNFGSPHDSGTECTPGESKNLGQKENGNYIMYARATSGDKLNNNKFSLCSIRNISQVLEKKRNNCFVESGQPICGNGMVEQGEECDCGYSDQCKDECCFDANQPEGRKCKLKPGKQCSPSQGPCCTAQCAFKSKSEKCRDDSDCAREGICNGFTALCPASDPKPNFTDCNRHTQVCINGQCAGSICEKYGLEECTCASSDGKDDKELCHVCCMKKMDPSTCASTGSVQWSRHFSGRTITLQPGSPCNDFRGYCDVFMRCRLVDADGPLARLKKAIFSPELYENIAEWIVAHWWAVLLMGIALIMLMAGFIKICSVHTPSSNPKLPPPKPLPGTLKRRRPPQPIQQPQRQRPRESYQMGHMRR
Nature of the assay: ADAM10 protease inhibitors, dose response, selectivity assay for ADAM17 exosite inhibitor project, biochemical, FRET peptide substrate, recombinant human ADAM10 (AID 743259).

For orientation: IC50 means the concentration needed to halve the response being measured. Turning to `CCOc1ccc(NC(=O)Cc2sc(=O)n(-c3ccccc3)c2O)cc1`, the IC50 came out at 37.7 µM. In the case of `Cn1c(-c2sccc2OCc2ccc(Cl)cc2Cl)n[nH]c1=S`, the IC50 came to 11.1 µM. Consider `O=C(Cc1sc(=O)n(-c2ccccc2)c1O)Nc1ccccc1` [2-(2,4-diketo-3-phenyl-thiazolidin-5-yl)-N-phenyl-acetamide], for which the IC50 was 47.8 µM. To `COc1cccc(C2c3oc(CO)cc(=O)c3OC(=N)C2C#N)c1` (configuration not stated) [2-Amino-6-hydroxymethyl-4-(3-methoxy-phenyl)-8-oxo-4,8-dihydro-pyrano[3,2-b]pyran-3-carbonitrile] belongs 69.5 µM; to `COc1ccc(NC(=O)c2oc3ccccc3c2NC(=O)C(C)(C)C)cc1` [3-(2,2-dimethylpropanoylamino)-N-(4-methoxyphenyl)-1-benzofuran-2-carboxamide], 69.5 µM. Consider `CCOc1cc(C(c2c(C)[nH][nH]c2=O)c2c(C)[nH][nH]c2=O)ccc1O` [4-[(3-ethoxy-4-hydroxyphenyl)-(3-methyl-5-oxo-1,2-dihydropyrazol-4-yl)methyl]-5-methyl-1,2-dihydropyrazol-3-one], for which the IC50 was 2.58 µM. To `Cc1cccc(NNC2=c3cc(Br)ccc3=NC2=O)c1` [5-bromo-3-[2-(3-methylphenyl)hydrazinyl]indol-2-one] belongs 69.5 µM. To `CC1CCCN(CCCNC(=O)c2coc3nc4ccccc4nc23)C1` (configuration not stated) [MLS000046706] belongs 28.5 µM; to `O=C1OCCN1C(=O)C1=[N+](c2ccc(Br)cc2)N[C-](c2ccccc2)[C@H]1c1ccc([N+](=O)[O-])cc1` [SMR000327268], 69.5 µM. In the case of `CC(=NNC(=N)Sc1cc(O)n(-c2ccc(Br)cc2)c1O)c1cccs1` [[1-(4-bromophenyl)-2,5-bis(oxidanylidene)pyrrolidin-3-yl] N''-(1-thiophen-2-ylethylideneamino)carbamimidothioate] it was 32.5 µM; in that of `CC(=NNC(=N)Sc1cc(O)n(-c2ccccc2)c1O)c1cccs1` [[2,5-bis(oxidanylidene)-1-phenyl-pyrrolidin-3-yl] N'-[(E)-1-thiophen-2-ylethylideneamino]carbamimidothioate], 9.95 µM; in that of `COC(=O)c1cccc(Cn2c(Cl)c(CN=Nc3ccccc3C)sc2=O)c1` [methyl 3-[[4-chloro-5-[[(2-methylphenyl)hydrazinylidene]methyl]-2-oxo-1,3-thiazol-3-yl]methyl]benzoate], 69.5 µM.
